Results taken from the supplement of paper PMC10307832.

Tests used:
Assay in all cases: relative viability (nuclei count vs DMSO), 5 days (fraction); higher = more cells survive
NCI-H2228 = test system: NCI-H2228
Procedure, shortened: (§1)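 Values are medians from duplicate plates. Each reflects relative viability, defined as the nuclei count of treated wells over that of vehicle wells. Lung cancer cell lines in 1536-well plates were pin-tool dosed one day after seeding with one drug alone or with a fixed anchor-drug dose plus five library-drug doses (not always all listed) in √10 steps, then fixed, stained and imaged at 4× after 5 days.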

NCI-H1395 = test system: NCI-H1395
Procedure, shortened: as §1

RERF-LC-KJ = test system: RERF-LC-KJ
Procedure, shortened: as §1

NCI-H1437 = test system: NCI-H1437
Procedure, shortened: as §1

NCI-H2405 = test system: NCI-H2405
Procedure, shortened: as §1

NCI-H2023 = test system: NCI-H2023
Procedure, shortened: as §1

HOP-62 = test system: HOP-62
Procedure, shortened: as §1

NCI-H647 = test system: NCI-H647
Procedure, shortened: as §1

LCLC-97TM1 = test system: LCLC-97TM1
Procedure, shortened: as §1

NCI-H3122 = test system: NCI-H3122
Procedure, shortened: as §1

CAL-12T = test system: CAL-12T
Procedure, shortened: as §1

NCI-H1650 = test system: NCI-H1650
Procedure, shortened: as §1

NCI-H1793 = test system: NCI-H1793
Procedure, shortened: as §1

HCC-44 = test system: HCC-44
Procedure, shortened: as §1

NCI-H322M = test system: NCI-H322M
Procedure, shortened: as §1

HCC-827 = test system: HCC-827
Procedure, shortened: as §1

SK-LU-1 = test system: SK-LU-1
Procedure, shortened: as §1

NCI-H727 = test system: NCI-H727
Procedure, shortened: as §1

NCI-H1355 = test system: NCI-H1355
Procedure, shortened: as §1

LXF-289 = test system: LXF-289
Procedure, shortened: as §1

NCI-H2087 = test system: NCI-H2087
Procedure, shortened: as §1

BEN = test system: BEN
Procedure, shortened: as §1

201T = test system: 201T
Procedure, shortened: as §1

Molecule Clc1ccc(Nc2nnc(Cc3ccncc3)c3ccccc23)cc1 [Vatalanib] + CS(=O)(=O)CCNCc1ccc(-c2ccc3ncnc(Nc4ccc(OCc5cccc(F)c5)c(Cl)c4)c3c2)o1 [Lapatinib] (partner 2 µM) has a relative viability (NCI-H2228; first compound 0.04 µM) of 1.32, a relative viability (NCI-H2228; first compound 0.1265 µM) of 1.14 and a relative viability (NCI-H2228; first compound 0.4 µM) of 1.06. The relative viability (NCI-H2228; first compound 1.265 µM) was 0.981, the relative viability (NCI-H2228; first compound 4 µM) was 1.28 and the relative viability (NCI-H1395; first compound 0.04 µM) was 1.16. It also gave a relative viability (NCI-H1395; first compound 0.1265 µM) of 0.929, a relative viability (NCI-H1395; first compound 0.4 µM) of 0.948 and a relative viability (NCI-H1395; first compound 1.265 µM) of 1.01. It also gave a relative viability (NCI-H1395; first compound 4 µM) of 0.864, a relative viability (RERF-LC-KJ; first compound 0.04 µM) of 0.812 and a relative viability (RERF-LC-KJ; first compound 0.1265 µM) of 0.842. It also gave a relative viability (RERF-LC-KJ; first compound 0.4 µM) of 0.854, a relative viability (RERF-LC-KJ; first compound 1.265 µM) of 0.775 and a relative viability (RERF-LC-KJ; first compound 4 µM) of 0.698. For the same molecule, the relative viability (NCI-H1437; first compound 0.04 µM) was 0.856, the relative viability (NCI-H1437; first compound 0.1265 µM) was 0.779 and the relative viability (NCI-H1437; first compound 0.4 µM) was 0.934. It also gave a relative viability (NCI-H1437; first compound 1.265 µM) of 0.734, a relative viability (NCI-H1437; first compound 4 µM) of 0.848 and a relative viability (NCI-H2405; first compound 0.04 µM) of 1.04. It also gave a relative viability (NCI-H2405; first compound 0.1265 µM) of 0.984, a relative viability (NCI-H2405; first compound 1.265 µM) of 0.923 and a relative viability (NCI-H2405; first compound 4 µM) of 1.05. For the same molecule, the relative viability (NCI-H2023; first compound 0.04 µM) was 0.749, the relative viability (NCI-H2023; first compound 0.1265 µM) was 0.725 and the relative viability (NCI-H2023; first compound 0.4 µM) was 1.05. For the same molecule, the relative viability (NCI-H2023; first compound 1.265 µM) was 0.681, the relative viability (NCI-H2023; first compound 4 µM) was 0.736 and the relative viability (HOP-62; first compound 0.04 µM) was 1.13. It also gave a relative viability (HOP-62; first compound 0.4 µM) of 1.06, a relative viability (HOP-62; first compound 1.265 µM) of 0.827 and a relative viability (HOP-62; first compound 4 µM) of 0.989. For the same molecule, the relative viability (NCI-H647; first compound 0.04 µM) was 1.12, the relative viability (NCI-H647; first compound 0.1265 µM) was 1.07 and the relative viability (NCI-H647; first compound 0.4 µM) was 1.26. It also gave a relative viability (NCI-H647; first compound 1.265 µM) of 1.05, a relative viability (NCI-H647; first compound 4 µM) of 1.04 and a relative viability (LCLC-97TM1; first compound 0.04 µM) of 0.818. The relative viability (LCLC-97TM1; first compound 0.1265 µM) was 0.847, the relative viability (LCLC-97TM1; first compound 0.4 µM) was 0.841 and the relative viability (LCLC-97TM1; first compound 1.265 µM) was 0.897. For the same molecule, the relative viability (LCLC-97TM1; first compound 4 µM) was 0.971, the relative viability (NCI-H3122; first compound 0.04 µM) was 1.01 and the relative viability (NCI-H3122; first compound 0.1265 µM) was 1.01. For the same molecule, the relative viability (NCI-H3122; first compound 0.4 µM) was 1.01, the relative viability (NCI-H3122; first compound 1.265 µM) was 0.977 and the relative viability (NCI-H3122; first compound 4 µM) was 0.97. It also gave a relative viability (CAL-12T; first compound 0.04 µM) of 0.63, a relative viability (CAL-12T; first compound 0.1265 µM) of 0.668 and a relative viability (CAL-12T; first compound 1.265 µM) of 0.678. The relative viability (CAL-12T; first compound 4 µM) was 0.633, the relative viability (NCI-H1650; first compound 0.04 µM) was 0.799 and the relative viability (NCI-H1650; first compound 0.1265 µM) was 0.644. For the same molecule, the relative viability (NCI-H1650; first compound 0.4 µM) was 0.959, the relative viability (NCI-H1650; first compound 1.265 µM) was 0.752 and the relative viability (NCI-H1650; first compound 4 µM) was 0.63. The relative viability (NCI-H1793; first compound 0.04 µM) was 0.743, the relative viability (NCI-H1793; first compound 0.1265 µM) was 0.704 and the relative viability (NCI-H1793; first compound 0.4 µM) was 1.05. For the same molecule, the relative viability (NCI-H1793; first compound 1.265 µM) was 0.64, the relative viability (NCI-H1793; first compound 4 µM) was 0.81 and the relative viability (HCC-44; first compound 0.04 µM) was 1.01. The relative viability (HCC-44; first compound 0.1265 µM) was 0.941, the relative viability (HCC-44; first compound 0.4 µM) was 1.02 and the relative viability (HCC-44; first compound 1.265 µM) was 0.986. It also gave a relative viability (HCC-44; first compound 4 µM) of 0.986, a relative viability (NCI-H322M; first compound 0.04 µM) of 0.493 and a relative viability (NCI-H322M; first compound 0.1265 µM) of 0.637. The relative viability (NCI-H322M; first compound 0.4 µM) was 0.509, the relative viability (NCI-H322M; first compound 1.265 µM) was 0.561 and the relative viability (NCI-H322M; first compound 4 µM) was 0.535. The relative viability (HCC-827; first compound 0.04 µM) was 0.19, the relative viability (HCC-827; first compound 0.1265 µM) was 0.174 and the relative viability (HCC-827; first compound 0.4 µM) was 0.182. The relative viability (HCC-827; first compound 1.265 µM) was 0.165, the relative viability (HCC-827; first compound 4 µM) was 0.188 and the relative viability (SK-LU-1; first compound 0.04 µM) was 0.963. It also gave a relative viability (SK-LU-1; first compound 0.1265 µM) of 0.875, a relative viability (SK-LU-1; first compound 0.4 µM) of 1.21 and a relative viability (SK-LU-1; first compound 1.265 µM) of 0.885. For the same molecule, the relative viability (SK-LU-1; first compound 4 µM) was 0.848, the relative viability (NCI-H727; first compound 0.04 µM) was 0.806 and the relative viability (NCI-H727; first compound 0.1265 µM) was 0.717. It also gave a relative viability (NCI-H727; first compound 0.4 µM) of 0.9, a relative viability (NCI-H727; first compound 1.265 µM) of 0.709 and a relative viability (NCI-H727; first compound 4 µM) of 1.02. The relative viability (NCI-H1355; first compound 0.04 µM) was 1.02, the relative viability (NCI-H1355; first compound 0.1265 µM) was 0.934 and the relative viability (NCI-H1355; first compound 0.4 µM) was 1.14. The relative viability (NCI-H1355; first compound 1.265 µM) was 0.86, the relative viability (NCI-H1355; first compound 4 µM) was 0.887 and the relative viability (LXF-289; first compound 0.04 µM) was 0.959. The relative viability (LXF-289; first compound 0.1265 µM) was 0.82, the relative viability (LXF-289; first compound 0.4 µM) was 0.98 and the relative viability (LXF-289; first compound 1.265 µM) was 0.891. The relative viability (LXF-289; first compound 4 µM) was 0.904, the relative viability (NCI-H2087; first compound 0.04 µM) was 1.12 and the relative viability (NCI-H2087; first compound 0.1265 µM) was 1.02. The relative viability (NCI-H2087; first compound 0.4 µM) was 1.15, the relative viability (NCI-H2087; first compound 1.265 µM) was 1.09 and the relative viability (NCI-H2087; first compound 4 µM) was 1.12. For the same molecule, the relative viability (BEN; first compound 0.04 µM) was 0.79, the relative viability (BEN; first compound 0.1265 µM) was 0.554 and the relative viability (BEN; first compound 0.4 µM) was 0.806. For the same molecule, the relative viability (BEN; first compound 1.265 µM) was 0.657, the relative viability (BEN; first compound 4 µM) was 0.767 and the relative viability (201T; first compound 0.04 µM) was 1.02. It also gave a relative viability (201T; first compound 0.1265 µM) of 0.989, a relative viability (201T; first compound 0.4 µM) of 1.04 and a relative viability (201T; first compound 1.265 µM) of 1.05. For the same molecule, the relative viability (201T; first compound 4 µM) was 1.07.
